The text below walks through data of the supplement of paper PMC11997997.

Structures are written as SMILES.

Assay [1] deals with murine bone marrow-derived macrophages. Nature of the assay: area under cytotoxicity dose-response curve (AUC (% cytotoxicity x dose, relative)); higher = more cytotoxic. The settings on record: duration: 6 days; dose range: 0.13-80 uM, 8 points. In a few lines:
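Using opaque 384-well plates, primary murine bone marrow-derived macrophages were treated for 6 days at 37 °C in 5% CO2 with an 8-point, 2.5-fold dilution series spanning final concentrations of 80–0.13 μM. After CellTiter-Glo (Promega) luminescence readout of viability, percent cytotoxicity was normalised to vehicle and positive control wells. The reported value is the area under the dose–response curve for cytotoxicity, derived in GraphPad Prism version 10.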

The subject of assay [2] is Mycobacterium tuberculosis CDC1551 (intracellular, in murine BMDM). Nature of the assay: area under intracellular growth-inhibition dose-response curve (AUC (% inhibition x dose, relative)); higher = more potent. The settings on record: duration: 6 days; dose range: 0.13-80 uM, 8 points. In a few lines: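 Primary murine bone marrow-derived macrophages in 384-well opaque plates were infected 24 h after seeding with luciferase-expressing M. tuberculosis CDC1551 at multiplicity of infection 1 for 1 h. They were then treated with an 8-dose, 2.5-fold series (final 80–0.13 μM) for 6 days. Growth was read by Bright-Glo luciferin assay and normalised to a reference drug control and the lowest-concentration wells. The value is the area under the growth-inhibition dose–response curve, calculated in GraphPad Prism.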

Take `COc1cccc(OCCNC(=O)c2cc([N+](=O)[O-])cc([N+](=O)[O-])c2)c1`: the “area under cytotoxicity dose-response curve” value in assay [1] amounted to 10.6. Also, in assay [2], the “area under intracellular growth-inhibition dose-response curve” value is 265.
In the same order, the values of `Cn1c(/C=C/c2ccc([N+](=O)[O-])o2)nc2ccccc2c1=O` are 53.2 and 85.8.
In the same order, the values of `COc1ccc(/C=N/NC(=O)c2ccncc2)cc1CN1CCCc2ccccc21` are 19.4 and 201.
In the case of `O=C(C=Cc1cccs1)c1ccc(Cl)s1`, the “area under cytotoxicity dose-response curve” value in assay [1] is 8.27. For the same molecule, the “area under intracellular growth-inhibition dose-response curve” value in assay [2] stood at 235.
The corresponding values for `CN(C(=O)CSc1ncnc2sc3c(c12)CCC3)C1CCS(=O)(=O)C1` (stereo not drawn) are 4.88 and 60.2.
The corresponding values for `Cc1cccc(Cn2ccc(NC(=O)c3ccc4c(c3)OCO4)n2)c1` are 85.5 and 133.
In the same order, the values of `CCc1ccc(/C(C)=N/NC(=O)c2ccc(-n3cnnn3)cc2)cc1` are 24.6 and < 0.
Turning to `CCCN(CCC)CC(O)Cn1cc(/C=C/C(=O)c2cccs2)c2ccccc21` (stereo not drawn), in assay [1], the “area under cytotoxicity dose-response curve” value came to 2.01. Also, the “area under intracellular growth-inhibition dose-response curve” value in assay [2] was 231.
For the molecule `CCN(C(=O)COC(=O)c1nc(Cl)ccc1Cl)c1c(N)n(Cc2ccccc2)c(=O)[nH]c1=O`, the “area under cytotoxicity dose-response curve” value in assay [1] stood at 73. In addition, the “area under intracellular growth-inhibition dose-response curve” value in assay [2] worked out at 28.6.
For `O=C(NCc1ccco1)c1cc([N+](=O)[O-])cc([N+](=O)[O-])c1`, the “area under cytotoxicity dose-response curve” value in assay [1] is 29.1. The “area under intracellular growth-inhibition dose-response curve” value in assay [2] amounted to 160.
In the same order, the values of `COc1cccc(CNC(=O)CN2C(=O)NC(Cc3ccccc3)(c3ccccc3)C2=O)c1` (stereo not drawn) are 1.94 and 89.4.
In the same order, the values of `Cc1ccc(C(=O)NC2CCCCCC2)o1` are < 0 and 263.
On to `CCOC(=O)c1cc(-c2csc(-c3ccc(C(C)(C)C)cc3)n2)on1`, for which the “area under cytotoxicity dose-response curve” value in assay [1] worked out at 79.1. For the same molecule, in assay [2], the “area under intracellular growth-inhibition dose-response curve” value came out at 231.
The corresponding values for `O=C(NCc1cccc(C(F)(F)F)c1)c1ccc[nH]1` are 2.14 and 91.
As for `CC[C@@H](C)[C@@H]1CN([C@@H](CN2CCC[C@H]2CN2C(N)=NC[C@@H]2Cc2ccccc2)C(C)C)C(=N)N1CCCC1CCCC1`, the “area under cytotoxicity dose-response curve” value in assay [1] came to 98.8. Moreover, the “area under intracellular growth-inhibition dose-response curve” value in assay [2] came out at 83.6.
In the same order, the values of `Cc1ccc(C(=O)OCC(=O)NC2CCCC(C)C2C)cc1S(=O)(=O)N1CCCCC1` (stereo not drawn) are < 0 and 136.
As to `C#CCSc1nnc(-c2ccc([N+](=O)[O-])cc2)o1`, the “area under cytotoxicity dose-response curve” value in assay [1] is < 0. For the same molecule, the “area under intracellular growth-inhibition dose-response curve” value in assay [2] came out at 246.
Regarding `COc1ccc(/C=N/NC(=O)c2ccncc2)c(OC)c1`, the “area under cytotoxicity dose-response curve” value in assay [1] came out at 28. In addition, in assay [2], the “area under intracellular growth-inhibition dose-response curve” value came out at 227.
In the same order, the values of `O=C1/C(=C/c2cccs2)CCC1C1CCCC1` (stereo not drawn) are < 0 and 132.
Take `FC(F)Oc1ccc(NC(=S)Nc2ccc3c[nH]nc3c2)cc1`: the “area under cytotoxicity dose-response curve” value in assay [1] is < 0. Besides, the “area under intracellular growth-inhibition dose-response curve” value in assay [2] was found to be 219.
In the same order, the values of `O=C(c1ccc([N+](=O)[O-])o1)N1CCN(Cc2ccccc2)CC1` are 4.42 and 151.
In the same order, the values of `O=C(/C=C/c1ccc(S(=O)(=O)N2CCOCC2)cc1)NCCc1ccc(C(F)(F)F)cc1` are 42 and 102.
In the same order, the values of `O.Sc1[nH]cnc2ncnc1-2` are < 0 and 140.
Take `CC(=O)Nc1ccc(/C(C)=N/NC(=O)c2ccncc2)cc1`: the “area under cytotoxicity dose-response curve” value in assay [1] amounted to 0.755. In assay [2], the “area under intracellular growth-inhibition dose-response curve” value was 250.
In the same order, the values of `CCOC(=O)c1cc(-c2ccc(N3CCOCC3)cc2)nn1-c1ccc(F)cc1F` are 22.7 and 15.8.
In the same order, the values of `O=C(Nc1ccn(Cc2ccccc2)n1)c1ccc2c(c1)OCO2` are 62.2 and 121.
The corresponding values for `Cc1ccc(S(=O)(=O)c2ccc([N+](=O)[O-])cn2)cc1` are 102 and < 0.
For the molecule `CC(C)(O)C(=O)Nc1ccc([N+](=O)[O-])c(C(F)(F)F)c1`, in assay [1], the “area under cytotoxicity dose-response curve” value was 82.8. Also, the “area under intracellular growth-inhibition dose-response curve” value in assay [2] is 35.7.
Turning to `O=C(Nc1cccc(Cl)c1)NC1CC2CCC1C2` (stereo not drawn), the “area under cytotoxicity dose-response curve” value in assay [1] amounted to 31.1. Besides, the “area under intracellular growth-inhibition dose-response curve” value in assay [2] is 232.
In the same order, the values of `CCCCCNC(=O)CCc1ccccc1` are < 0 and 130.
In the same order, the values of `O=S(=O)(Nc1ccc(S(=O)(=O)Nc2nccs2)cc1)c1ccc2c(c1)OCCO2` are < 0 and 77.8.
In the same order, the values of `Cc1nnc(SCC2=C(C(=O)O)N3C(=O)C(NC(=O)C(C)n4nc(C(F)(F)F)cc4C)C3SC2)s1` (stereo not drawn) are 2.61 and 176.
`O=C(CSc1nc2ccccc2s1)NCc1cc([N+](=O)[O-])ccc1O`: in assay [1], the “area under cytotoxicity dose-response curve” value came to 48. The “area under intracellular growth-inhibition dose-response curve” value in assay [2] is 39.4.
In the same order, the values of `CC1CCC(NC(=O)c2ccc3c(c2)OCO3)CC1` (stereo not drawn) are < 0 and 218.
The corresponding values for `CC(NC(=O)c1cc2ccccc2o1)c1cccs1` (stereo not drawn) are < 0 and 257.
Take `NC(=S)N/N=C/c1cccc(Br)c1`: the “area under cytotoxicity dose-response curve” value in assay [1] was 35. Moreover, the “area under intracellular growth-inhibition dose-response curve” value in assay [2] was 270.
Take `Cc1[nH]c2ccccc2c1/C=N/NC(N)=S`: the “area under cytotoxicity dose-response curve” value in assay [1] was found to be 102. For the same molecule, the “area under intracellular growth-inhibition dose-response curve” value in assay [2] turned out to be 131.
In the same order, the values of `Cc1nnc(NCc2cccc(Cl)c2)c2ccccc12` are 128 and 211.
The corresponding values for `CN(CC(=O)Nc1ccc(OC(F)(F)F)cc1)C(=O)c1ccc(N2CCCC2=O)cc1` are 36.3 and 27.6.
As for `NC(=S)NN=C1Cc2cccc3cccc1c23`, the “area under cytotoxicity dose-response curve” value in assay [1] turned out to be 58.9. For the same molecule, in assay [2], the “area under intracellular growth-inhibition dose-response curve” value stood at 263.
As to `O=C(/C=C/c1cccs1)NCc1ccccc1`, the “area under cytotoxicity dose-response curve” value in assay [1] stood at 10.6. Moreover, the “area under intracellular growth-inhibition dose-response curve” value in assay [2] came to 217.
The corresponding values for `C/C(=N\NC(N)=S)c1ccccc1` are 45.3 and 219.
Take `N#C/C(=N\Nc1ccc(Cl)cc1)C(N)=S`: in assay [1], the “area under cytotoxicity dose-response curve” value turned out to be 16.4. The “area under intracellular growth-inhibition dose-response curve” value in assay [2] was determined as 102.
The corresponding values for `O=C(COC(=O)C1COc2ccccc2O1)Nc1cccc(F)c1` (stereo not drawn) are < 0 and 46.1.
The corresponding values for `COc1cc(/C=N/NC(N)=S)ccc1OCC(=O)Nc1ccc(C)c(C)c1` are 10.1 and 242.
The corresponding values for `CCN(CC)CCN(C(=O)C1=COCCO1)c1nc2cc(C)cc(C)c2s1.Cl` are 22.7 and 227.
For the molecule `COc1ccc(NC(=S)Nc2ccc(N)c([N+](=O)[O-])c2)cc1`, in assay [1], the “area under cytotoxicity dose-response curve” value is 5.13. Also, the “area under intracellular growth-inhibition dose-response curve” value in assay [2] worked out at 167.
The corresponding values for `CC(C)(C)C(=O)/C(=C/c1cccc([N+](=O)[O-])c1)n1cncn1` are 157 and 8.55.
The corresponding values for `O=C(NCc1ccc(F)cc1)c1cc2ccccc2o1` are 48.5 and 254.
The corresponding values for `CSc1nnc(-c2ccc(NC(N)=S)cc2)o1` are 96.1 and 154.
Regarding `CC1CN(c2ccc(NC(=S)Nc3ccc(N4CC(C)OC(C)C4)cc3)cc2)CC(C)O1` (stereo not drawn), the “area under cytotoxicity dose-response curve” value in assay [1] was 17.3. The “area under intracellular growth-inhibition dose-response curve” value in assay [2] came out at 186.
Consider `COc1sc(SC)cc1/C=N/NC(=O)c1ccncc1`, for which, in assay [1], the “area under cytotoxicity dose-response curve” value was found to be 26.8. Besides, the “area under intracellular growth-inhibition dose-response curve” value in assay [2] is 176.
The corresponding values for `Cc1c(Cl)sn(-c2ccc(Cl)cc2)c1=O` are 60.1 and 130.
`O=C(Nc1ccc(OC(F)(F)F)cc1)c1ccc2c(c1)no[n+]2[O-]`: the “area under cytotoxicity dose-response curve” value in assay [1] was < 0. The “area under intracellular growth-inhibition dose-response curve” value in assay [2] came to 230.
